Experimental data from patent publication US20110081675A1, “Metabolic Biomarkers Of Drug-Induced Cardiotoxicity” (WISCONSIN ALUMNI RESEARCH FOUNDATION, priority 2009, published 2011).

Assays:
[1] = tested on: human cardiomyocytes (Celprogen 36044-15at); assay: LC-ESI-TOF-MS metabolomics of extracellular media of drug-treated human cardiomyocytes (Tables 2A-2C); type: cell-based; conditions: 15uM paclitaxel
Protocol: Data for statistical analysis were extracted from chromatograms using the Agilent Mass Hunter software (Product No. G3297AA, Agilent Technologies, Inc., Santa Clara, Calif.); it will be understood that alternative statistical analysis methods can be used. Masses were binned together if they were within 10 ppm and eluted within a 2 minutes retention time window. A binned mass was considered to be the same molecule across different LC-ESI-TOF-MS analyses (referred to herein as an “exact mass,” which will be understood to be ±10 ppm). Binning of the data is required for statistical analysis and comparison of masses across the entire experiment. If multiple peaks with the same mass at the same retention time within a single sample were detected by Mass Hunter, they were averaged to assist data analysis. Masses lacking a natural isotopic distribution or with an absolute height of less than 1000 were removed from the data prior to analysis. It would be understood that the results from this assay provide relative values that are assessed according to annotated values within 10 ppm to provide an identity for the molecular weight detected. Thus, a mass shift within 10 ppm is considered consistent with determining the identity of a specific cellular metabolite previously annotated due to differences in ionization source and instrumentation, e.g. between different experiments or using different instruments.
As used herein, a mass was considered to be the same across LC/ESI-TOF-MS runs using a simple algorithm that first sorts the data by mass and retention time. […] If a series of measurements fit this definition it was considered to be from the same compound. If either the mass or the retention time varied by more than the limits listed above it was considered to be a different compound and given a new unique designation.
The data from the most reproducible mass features was log base 2 transformed and median centered prior to statistical analysis. […] To test the null hypothesis a one way permutation based t-test assuming a normal approximation of the conditional distribution was used and implement using the Conditional Inference Procedures in a Permutation Test Framework (Coin) library, a contributed package of programming code. Statistics tests were performed without replacement of missing values decrease the degrees of freedom rather than imputing missing values. […] False discovery rates (FDR) were controlled using the Q value estimator (Storey et al., 2003, Proc Natl Acad. Sci., 100:9440-5) and implemented using the qvalue library in R (Dabney et al., 2003, qvalue: Q-value estimation for false discovery rate control. R package version 1.10.0., www.CRAN.R-project.org).
The extracellular media from treated and untreated cells was processed as described in Cezar et al., (2007, Stem Cells Development 16: 869-882, this publication is incorporated by reference), for extraction of low molecular weight molecules (<3 kD) for metabolomics analysis. Extracellular low molecular weight molecule preparations were separated by liquid chromatography followed by electrospray ionization time of flight (LC-ESI-TOF-MS) mass spectrometry for ionization and detection of the full spectra of low molecular weight molecules present in each sample. More specifically, the samples were separated using the ESI_Luna_HILIC—95_t—06OACN—16 min method (HILIC chromatography). Statistical differences were inferred by subsequent bioinformatics and in silico mapping of deisotoped ESI-TOF-MS mass features as described below (also provided in Cezar et al. (2007, id.)).
Briefly, ionization (100 m/z-1500 m/z) was acquired on an Agilent 6520 Accurate-Mass Q-TOF in extended dynamic range and positive mode. Mass features were generated using two independent methods. First MassHunter Qualitative Analysis was used to generate mass features using the Molecular Feature Extraction algorithm (MFE).

[2] = tested on: human cardiomyocytes
Protocol: The percentage of cell death, inherently and after drug treatment, was calculated by Trypan Blue staining (FIG. 2).
The doses for each compound were based upon published standards, equivalent to therapeutic circulating levels whenever possible (see Table 1).

**Q.** Which results are given for `CC(=O)O[C@H]1C(=O)[C@@]2(C)[C@H]([C@H](OC(=O)c3ccccc3)[C@]3(O)C[C@H](OC(=O)[C@H](O)[C@@H](NC(=O)c4ccccc4)c4ccccc4)C(C)=C1C3(C)C)[C@]1(OC(C)=O)CO[C@@H]1C[C@@H]2O` [Paclitaxel]?
**A.** pacfold ([1]; feature cpdID 36, neutral mass 101.1204, RT 0.720145, Triethylamine or Hexylamine): 1.413 fold; pacfold ([1]; feature cpdID 8902, neutral mass 276.1256, RT 8.733378, no hit): 2.728 fold; pacfold ([1]; feature cpdID 11232, neutral mass 311.1029, RT 7.400847, p-Glucosyloxymandelonitrile or (S)-4-Hydroxymandelonitrile beta-D-glucoside): 4.25 fold; pacfold ([1]; feature cpdID 14190, neutral mass 356.253, RT 1.103957, HMDB04239, 13,14-dihydro PGE1 or Prostaglandin F1alpha): 12.08 fold; pacfold ([1]; feature cpdID 15112, neutral mass 372.0557, RT […], no hit): −1.026 fold; pacfold ([1]; feature cpdID 16504, neutral mass 393.0913, RT 7.25538, no hit): 1.219 fold; pacfold ([1]; feature cpdID 16939, neutral mass 400.2796, RT 1.108613, 7-Ketocholesterol): 11.76 fold; pacfold ([1]; feature cpdID 17096, neutral mass 403.1776, RT 6.2306, no hit): −2.028 fold; pacfold ([1]; feature cpdID 19500, neutral mass 444.3034, RT 1.106333, […]-Dihydroxyvitamin D3-26,23-lactone): 17.08 fold; pacfold ([1]; feature cpdID 19704, neutral mass 448.1344, RT 7.184483, no hit): 2.694 fold; pacfold ([1]; feature cpdID 21926, neutral mass 488.3323, RT 1.106573, no hit): 8.467 fold; pacfold ([1]; feature cpdID 23129, neutral mass 515.181, RT 10.44297, no hit): 1.263 fold; pacfold ([1]; feature cpdID 23163, neutral mass 516.1241, RT 7.217222, Formononetin 7-O-glucoside-6″-O-malonate, Isochlorogenic acid b or 13-Dicaffeoylquinic acid): 2.288 fold; pacfold ([1]; feature cpdID 24142, neutral mass 538.2779, RT 0.783395, no hit): 1.807 fold; pacfold ([1]; feature cpdID 25445, neutral mass 572.1055, RT 7.089848, no hit): 1.259 fold; pacfold ([1]; feature cpdID 25601, neutral mass 576.3861, RT 1.10751, 3-Hexaprenyl-4-hydroxy-5-methoxybenzoic acid): 5.623 fold; pacfold ([1]; feature cpdID 27363, neutral mass 620.4117, RT 1.108317, no hit): 3.53 fold; pacfold ([1]; feature cpdID 28720, neutral mass 661.1924, RT 6.495524, no hit): 1.205 fold; pacfold ([1]; feature cpdID 29101, neutral mass 672.1828, RT 6.528464, no hit): 2.408 fold; pacfold ([1]; feature cpdID 29124, neutral mass 672.6836, RT 6.559082, no hit): 1.432 fold; pacfold ([1]; feature cpdID 29227, neutral mass 676.1781, RT 1.298314, no hit): −1.322 fold; pacfold ([1]; feature cpdID 31637, neutral mass 744.1091, RT 1.26415, no hit): −1.129 fold; pacfold ([1]; feature cpdID 37922, neutral mass 932.7613, RT 6.562271, no hit): 1.506 fold; pacfold ([1]; feature cpdID 40510, neutral mass 1040.322, RT 6.499979, no hit): 1.465 fold; pacfold ([1]; feature cpdID 42137, neutral mass 1122.172, RT 1.256606, no hit): −2.322 fold; pacfold ([1]; feature cpdID 45209, neutral mass 1300.402, RT 6.501484, no hit): 1.771 fold; pacfold ([1]; feature cpdID 45486, neutral mass 1322.385, RT 6.518707, no hit): 1.836 fold; cell death (in words) [2]: significantly higher cell death
